Test results published in ChEMBL document CHEMBL1201862, “PubChem BioAssay data set” (2004).
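Exposure lasted 48 hours, with cells grown in 96-well plates and compounds tested at five concentrations. GI50 is the concentration that inhibits growth by half.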 Activity calls are given as the source filed them. Cut-off read from the data, not from the text of the source: active = GI50 up to about 1.1 µM and inactive = higher.

Legend:
Test in all cases: inhibition of tumour cell growth, NCI panel, 48 h
786-0 = system: 786-0
A498 = system: A498
A549 = system: A549
ACHN = system: ACHN
BT-549 = system: BT-549
CAKI-1 = system: CAKI-1
CCRF-CEM = system: CCRF-CEM
COLO 205 = system: COLO 205
EKVX = system: EKVX
HCC 2998 = system: HCC 2998
HCT-116 = system: HCT-116
HCT-15 = system: HCT-15
HL-60 = system: HL-60
HOP-62 = system: HOP-62
HOP-92 = system: HOP-92
HT-29 = system: HT-29
Hs-578T = system: Hs-578T
IGROV-1 = system: IGROV-1
K562 = system: K562
KM12 = system: KM12
LOX IMVI = system: LOX IMVI
M14 = system: M14
MCF7 = system: MCF7
MDA-MB-231 = system: MDA-MB-231
MDA-N = system: MDA-N
MOLT-4 = system: MOLT-4
Malme-3M = system: Malme-3M
NCI-H226 = system: NCI-H226
NCI-H23 = system: NCI-H23
NCI-H460 = system: NCI-H460
NCI/ADR-RES = system: NCI/ADR-RES
OVCAR-3 = system: OVCAR-3
OVCAR-4 = system: OVCAR-4
OVCAR-5 = system: OVCAR-5
OVCAR-8 = system: OVCAR-8
PC-3 = system: PC-3
RXF 393 = system: RXF 393
SF-295 = system: SF-295
SF-539 = system: SF-539
SK-MEL-28 = system: SK-MEL-28
SK-MEL-2 = system: SK-MEL-2
SK-MEL-5 = system: SK-MEL-5
SK-OV-3 = system: SK-OV-3
SN12C = system: SN12C
SNB-19 = system: SNB-19
SNB-75 = system: SNB-75
SR = system: SR
SW-620 = system: SW-620
TK-10 = system: TK-10
U-251 = system: U-251
UACC-257 = system: UACC-257
UACC-62 = system: UACC-62
UO-31 = system: UO-31
DU-145 = system: DU-145
MDA-MB-435 = system: MDA-MB-435
NCI-H522 = system: NCI-H522
RPMI-8226 = system: RPMI-8226
SF-268 = system: SF-268
T47D = system: T47D

Compound: COC(=O)/C1=C/C=C\C[C@@]2(C)CC(c3ccoc3)OC(=O)[C@@H]2CC[C@H]1C (some centres undefined)
- GI50 (786-0): > 25 µM (inactive)
- GI50 (A498): > 25 µM (inactive)
- GI50 (A549): > 25 µM (inactive)
- GI50 (ACHN): > 25 µM (inactive)
- GI50 (BT-549): > 25 µM (inactive)
- GI50 (CAKI-1): > 25 µM (inactive)
- GI50 (CCRF-CEM): > 25 µM (inactive)
- GI50 (COLO 205): > 25 µM (inactive)
- GI50 (EKVX): > 25 µM (inactive)
- GI50 (HCC 2998): > 25 µM (inactive)
- GI50 (HCT-116): > 25 µM (inactive)
- GI50 (HCT-15): > 25 µM
- GI50 (HL-60): 7.23 µM (inactive)
- GI50 (HOP-62): > 25 µM (inactive)
- GI50 (HOP-92): > 25 µM (inactive)
- GI50 (HT-29): > 25 µM (inactive)
- GI50 (Hs-578T): > 25 µM (inactive)
- GI50 (IGROV-1): > 25 µM (inactive)
- GI50 (K562): > 25 µM (inactive)
- GI50 (KM12): > 25 µM (inactive)
- GI50 (LOX IMVI): > 25 µM (inactive)
- GI50 (M14): > 25 µM (inactive)
- GI50 (MCF7): > 25 µM (inactive)
- GI50 (MDA-MB-231): > 25 µM (inactive)
- GI50 (MDA-N): > 25 µM (inactive)
- GI50 (MOLT-4): > 25 µM (inactive)
- GI50 (Malme-3M): > 25 µM (inactive)
- GI50 (NCI-H226): > 25 µM (inactive)
- GI50 (NCI-H23): > 25 µM (inactive)
- GI50 (NCI-H460): > 25 µM (inactive)
- GI50 (NCI/ADR-RES): > 25 µM (inactive)
- GI50 (OVCAR-3): > 25 µM (inactive)
- GI50 (OVCAR-4): > 25 µM (inactive)
- GI50 (OVCAR-5): > 25 µM (inactive)
- GI50 (OVCAR-8): > 25 µM (inactive)
- GI50 (PC-3): > 25 µM (inactive)
- GI50 (RXF 393): > 25 µM (inactive)
- GI50 (SF-295): > 25 µM (inactive)
- GI50 (SF-539): > 25 µM (inactive)
- GI50 (SK-MEL-28): > 25 µM (inactive)
- GI50 (SK-MEL-2): > 25 µM (inactive)
- GI50 (SK-MEL-5): > 25 µM (inactive)
- GI50 (SK-OV-3): > 25 µM (inactive)
- GI50 (SN12C): > 25 µM (inactive)
- GI50 (SNB-19): > 25 µM (inactive)
- GI50 (SNB-75): > 25 µM (inactive)
- GI50 (SR): > 25 µM (inactive)
- GI50 (SW-620): > 25 µM (inactive)
- GI50 (TK-10): > 25 µM (inactive)
- GI50 (U-251): > 25 µM (inactive)
- GI50 (UACC-257): > 25 µM (inactive)
- GI50 (UACC-62): > 25 µM (inactive)
- GI50 (UO-31): > 25 µM (inactive)

Compound: Cc1ccc2nc3ccccc3c(C3C4C(=O)N(c5ccc(F)cc5)C(=O)C4ON3C(C(N)=O)c3ccccc3)c2c1 (centres undefined)
- GI50 (786-0): 37.9 µM (inactive)
- GI50 (A498): 41.1 µM (inactive)
- GI50 (A549): 29.4 µM (inactive)
- GI50 (ACHN): 49.3 µM (inactive)
- GI50 (BT-549): > 100 µM (inactive)
- GI50 (CAKI-1): 24.4 µM (inactive)
- GI50 (CCRF-CEM): 38.5 µM (inactive)
- GI50 (COLO 205): 17.5 µM (inactive)
- GI50 (DU-145): 59.3 µM (inactive)
- GI50 (EKVX): 30.5 µM (inactive)
- GI50 (HCT-116): 26.4 µM (inactive)
- GI50 (HCT-15): 27.2 µM
- GI50 (HL-60): 34.9 µM (inactive)
- GI50 (HOP-62): 71.8 µM (inactive)
- GI50 (HOP-92): 37.1 µM (inactive)
- GI50 (HT-29): 26.1 µM (inactive)
- GI50 (Hs-578T): 31.3 µM (inactive)
- GI50 (IGROV-1): 25.4 µM (inactive)
- GI50 (K562): 50.6 µM (inactive)
- GI50 (KM12): 32.4 µM (inactive)
- GI50 (LOX IMVI): 24.5 µM (inactive)
- GI50 (M14): 57 µM (inactive)
- GI50 (MCF7): 23.4 µM (inactive)
- GI50 (MDA-MB-231): 39.8 µM (inactive)
- GI50 (MDA-MB-435): 26.2 µM (inactive)
- GI50 (MOLT-4): 41.6 µM (inactive)
- GI50 (Malme-3M): 27.4 µM (inactive)
- GI50 (NCI-H226): 46.3 µM (inactive)
- GI50 (NCI-H23): 29.9 µM (inactive)
- GI50 (NCI-H460): 34.8 µM (inactive)
- GI50 (NCI-H522): 17.5 µM (inactive)
- GI50 (NCI/ADR-RES): 29.2 µM (inactive)
- GI50 (OVCAR-3): 26.7 µM (inactive)
- GI50 (OVCAR-4): 41.1 µM (inactive)
- GI50 (OVCAR-5): 25.8 µM (inactive)
- GI50 (OVCAR-8): 46 µM (inactive)
- GI50 (PC-3): 55.2 µM (inactive)
- GI50 (RPMI-8226): 25.3 µM (inactive)
- GI50 (RXF 393): 30.2 µM (inactive)
- GI50 (SF-268): 47.1 µM (inactive)
- GI50 (SF-295): 28.8 µM (inactive)
- GI50 (SF-539): 27.6 µM (inactive)
- GI50 (SK-MEL-28): 59 µM (inactive)
- GI50 (SK-MEL-2): 33.3 µM (inactive)
- GI50 (SK-OV-3): 33.2 µM (inactive)
- GI50 (SN12C): 33 µM (inactive)
- GI50 (SNB-19): 57.8 µM (inactive)
- GI50 (SNB-75): 76.9 µM (inactive)
- GI50 (SR): 40.9 µM (inactive)
- GI50 (SW-620): 37.1 µM (inactive)
- GI50 (T47D): 84.1 µM (inactive)
- GI50 (TK-10): 55.6 µM (inactive)
- GI50 (U-251): 29.4 µM (inactive)
- GI50 (UACC-257): 42.7 µM (inactive)
- GI50 (UACC-62): 20.6 µM (inactive)
- GI50 (UO-31): 36.1 µM (inactive)
